Data from patent US20070173493A1, “1-Oxadibenzo[e,h]azulenes for the treatment of central nervous system diseases and disorders” (Pliva-Istrazivacki Institut d.o.o., priority 2003, published 2007).

How the values were obtained:
5-HT2C receptor = target: T1, 5-HT2C receptor (Homo sapiens, UniProt P28335); test: radioligand binding assay for 5-HT2C receptor ([3H]-mesulergine competitive binding); conditions: choroid plexus or recombinant 5-HT2C receptor expressed in CHO-K1 cells
T1 construct: expressed in transfected cells; host or cells: CHO-K1 (alternatively choroid plexus tissue)
T1 sequence (P28335 33-458): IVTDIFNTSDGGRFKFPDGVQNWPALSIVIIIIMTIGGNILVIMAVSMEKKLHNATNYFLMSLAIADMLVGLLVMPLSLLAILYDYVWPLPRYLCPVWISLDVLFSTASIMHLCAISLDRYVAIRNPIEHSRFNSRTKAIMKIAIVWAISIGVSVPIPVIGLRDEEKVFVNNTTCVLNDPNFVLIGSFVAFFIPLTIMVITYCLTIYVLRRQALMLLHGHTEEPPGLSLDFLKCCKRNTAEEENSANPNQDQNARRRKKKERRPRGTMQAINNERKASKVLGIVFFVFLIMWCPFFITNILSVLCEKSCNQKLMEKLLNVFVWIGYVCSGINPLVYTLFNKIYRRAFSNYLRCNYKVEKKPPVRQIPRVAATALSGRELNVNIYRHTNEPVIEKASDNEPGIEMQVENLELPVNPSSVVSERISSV
Procedure: (§1) The effect of the compounds of the present invention on the neurochemical steady state was determined by in vitro investigations such as a radionuclide-marked radioligand binding assay for 5-HT2A (Bonhaus D. W. Br. J. Pharmacol. 1995, 115:622; Saucier C. J. Neurochem. 1997, 68:1998) and 5-HT2C receptors (Wolf W. A. J. Neurochem. 1997, 69:1449), in vitro binding assay for the σ1 receptor (Thomson W. and Donn R. Arthritis Res. 2002, 4: 302-306) and by in vivo investigations in a tail suspension test (Vogel H. G. and Vogel W. H. Drug Discovery and Evaluation Pharmacological Assays, Springer 1997, 304), in amphetamine-induced hyperlocomotion in mice (Millan M. J. et al, 1998 J Pharmacol. Exp. Ther. 287: 167-186), in a forced swim test in mice (Porsolt R. D. et al. Arch. Int. Pharmacodyn. 1977, 229:327-336), in meta-chlorophenyl piperazine (m-CPP) test on rats (Drug Dev. Res. 1989, 18:119-144), and in apomorphine, tryptamine, norepinephrine (ATN) test in rats (Arch. […]
(§2) A small concentration of a radioligand having a great affinity for binding to a receptor was incubated with a tissue sample enriched with a certain receptor (1-5 mg of tissue) in a buffered medium (0.2-5 mL). […] When a binding balance was achieved, the receptors to which the radioligand was bound were separated from those to which said ligand was not bound, and the radioactivity of the receptor/radioligand complex was measured. […]

5-HT2A receptor = target: T2, 5-HT2A receptor (Homo sapiens, UniProt P28223); test: radioligand binding assay for 5-HT2A receptor ([3H]-ketanserin competitive binding); conditions: human cortex or recombinant 5-HT2A receptor expressed in CHO-K1 cells
T2 construct: expressed in transfected cells; host or cells: CHO-K1 (alternatively human cortex tissue)
T2 sequence (P28223 whole entry): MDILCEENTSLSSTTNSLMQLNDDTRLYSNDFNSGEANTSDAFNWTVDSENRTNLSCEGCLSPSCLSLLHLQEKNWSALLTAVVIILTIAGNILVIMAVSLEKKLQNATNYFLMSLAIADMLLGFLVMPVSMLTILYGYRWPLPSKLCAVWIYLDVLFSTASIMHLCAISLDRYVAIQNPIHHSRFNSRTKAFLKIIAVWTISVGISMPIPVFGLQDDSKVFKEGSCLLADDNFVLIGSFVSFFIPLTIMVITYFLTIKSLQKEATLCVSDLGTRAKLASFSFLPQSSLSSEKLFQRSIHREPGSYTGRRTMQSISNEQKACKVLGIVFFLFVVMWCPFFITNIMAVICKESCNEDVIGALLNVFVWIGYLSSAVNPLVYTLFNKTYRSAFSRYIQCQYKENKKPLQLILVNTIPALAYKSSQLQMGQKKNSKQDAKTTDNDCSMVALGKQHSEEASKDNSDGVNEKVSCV
Procedure: as §1, §2

CN(C)CCOCc1cc2c(o1)-c1cc(Cl)ccc1Oc1ccccc1-2 [[2-(11-chloro-1,8-dioxa-dibenzo[e,h]azulen-2-ylmethoxy)-ethyl]-dimethyl-amine]
IC50 (5-HT2C receptor; read-out: binding affinity to 5-HT2C serotonin receptor expressed as IC50 value): < 200 nM
Ki (5-HT2C receptor; read-out: binding affinity to 5-HT2C serotonin receptor, Ki value): < 100 nM
IC50 (5-HT2A receptor; read-out: binding affinity to 5-HT2A serotonin receptor expressed as IC50 value): < 200 nM
Ki (5-HT2A receptor; read-out: binding affinity to 5-HT2A serotonin receptor, Ki value): < 100 nM
